Measurements taken from ChEMBL document CHEMBL4665678, “Overview of AKR1C3: Inhibitor Achievements and Disease Insights” (J Med Chem, 2020).
Residue numbers refer to the chain shown, from its start.

Assays:
[1] = molecular target: T1, Aldo-keto reductase family 1 member C3 (Homo sapiens, UniProt P42330); test: Inhibition of human AKR1C3 expressed in Escherichia coli BL21(DE3) pLysS cells using S-tetralol as substrate
T1 sequence (P42330 whole entry): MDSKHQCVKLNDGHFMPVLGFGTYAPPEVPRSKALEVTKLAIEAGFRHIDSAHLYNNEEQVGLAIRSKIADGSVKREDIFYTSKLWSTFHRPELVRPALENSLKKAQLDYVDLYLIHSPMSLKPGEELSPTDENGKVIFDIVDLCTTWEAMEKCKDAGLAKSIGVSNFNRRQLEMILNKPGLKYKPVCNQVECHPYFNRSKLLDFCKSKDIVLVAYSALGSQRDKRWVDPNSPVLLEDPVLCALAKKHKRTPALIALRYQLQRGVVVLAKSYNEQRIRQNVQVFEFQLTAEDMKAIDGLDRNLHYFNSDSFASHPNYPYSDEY

[2] = molecular target: T1, Aldo-keto reductase family 1 member C3; test: Inhibition of human AKR1C3 expressed in Escherichia coli BL21(DE3) pLysS cells using 9,10-phenanthrenequinone as substrate
[3] = molecular target: T2, Aldo-keto reductase family 1 member C1 (Homo sapiens, UniProt Q04828); test: Inhibition of human AKR1C1 using S-tetralol as substrate in presence of NADP by fluorescence method
T2 sequence (Q04828 whole entry): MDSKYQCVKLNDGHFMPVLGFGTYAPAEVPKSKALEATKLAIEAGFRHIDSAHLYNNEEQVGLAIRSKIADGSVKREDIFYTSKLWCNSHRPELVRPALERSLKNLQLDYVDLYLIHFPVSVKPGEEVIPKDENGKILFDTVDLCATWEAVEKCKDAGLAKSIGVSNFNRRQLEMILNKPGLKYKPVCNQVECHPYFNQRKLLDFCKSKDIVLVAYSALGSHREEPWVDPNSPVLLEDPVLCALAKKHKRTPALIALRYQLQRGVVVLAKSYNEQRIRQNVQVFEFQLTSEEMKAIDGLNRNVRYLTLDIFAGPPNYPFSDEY

[4] = molecular target: T1, Aldo-keto reductase family 1 member C3; test: Inhibition of human AKR1C3 using S-tetralol as substrate in presence of NADP by fluorescence method
[5] = molecular target: T3, Aldo-keto reductase family 1 member C2 (Homo sapiens, UniProt P52895); test: Inhibition of human AKR1C2 using S-tetralol as substrate in presence of NADP by fluorescence method
T3 sequence (P52895 whole entry): T2 sequence (Q04828 whole entry) with T38V, R47H, L54V, C87S, V151M, R170H, Q172L

[6] = molecular target: T4, Aldo-keto reductase family 1 member C4 (Homo sapiens, UniProt P17516); test: Inhibition of human AKR1C4 using S-tetralol as substrate in presence of NADP by fluorescence method
T4 sequence (P17516 whole entry): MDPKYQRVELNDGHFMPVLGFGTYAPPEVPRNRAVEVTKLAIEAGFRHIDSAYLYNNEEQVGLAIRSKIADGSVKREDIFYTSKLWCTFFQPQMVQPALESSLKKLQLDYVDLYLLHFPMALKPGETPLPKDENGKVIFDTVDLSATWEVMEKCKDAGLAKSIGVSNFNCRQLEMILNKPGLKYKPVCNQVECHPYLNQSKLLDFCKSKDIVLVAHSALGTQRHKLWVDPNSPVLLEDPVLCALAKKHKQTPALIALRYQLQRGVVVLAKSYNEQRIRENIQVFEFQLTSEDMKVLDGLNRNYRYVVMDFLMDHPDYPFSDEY

[7] = molecular target: T3, Aldo-keto reductase family 1 member C2; test: Inhibition of AKR1C2 (unknown origin) using 9,10-phenanthrenequinone as substrate
[8] = molecular target: T2, Aldo-keto reductase family 1 member C1; test: Inhibition of AKR1C1 (unknown origin) using 9,10-phenanthrenequinone as substrate
[9] = molecular target: T5, Androgen receptor (Homo sapiens, UniProt P10275); test: Antagonist activity at androgen receptor (unknown origin) expressed in human HeLa cells harboring AR3A-PSA-(ARE)4-Luc13 in presence of DHT by BrightGlo luciferase assay; type: cell-based
T5 sequence (P10275 whole entry): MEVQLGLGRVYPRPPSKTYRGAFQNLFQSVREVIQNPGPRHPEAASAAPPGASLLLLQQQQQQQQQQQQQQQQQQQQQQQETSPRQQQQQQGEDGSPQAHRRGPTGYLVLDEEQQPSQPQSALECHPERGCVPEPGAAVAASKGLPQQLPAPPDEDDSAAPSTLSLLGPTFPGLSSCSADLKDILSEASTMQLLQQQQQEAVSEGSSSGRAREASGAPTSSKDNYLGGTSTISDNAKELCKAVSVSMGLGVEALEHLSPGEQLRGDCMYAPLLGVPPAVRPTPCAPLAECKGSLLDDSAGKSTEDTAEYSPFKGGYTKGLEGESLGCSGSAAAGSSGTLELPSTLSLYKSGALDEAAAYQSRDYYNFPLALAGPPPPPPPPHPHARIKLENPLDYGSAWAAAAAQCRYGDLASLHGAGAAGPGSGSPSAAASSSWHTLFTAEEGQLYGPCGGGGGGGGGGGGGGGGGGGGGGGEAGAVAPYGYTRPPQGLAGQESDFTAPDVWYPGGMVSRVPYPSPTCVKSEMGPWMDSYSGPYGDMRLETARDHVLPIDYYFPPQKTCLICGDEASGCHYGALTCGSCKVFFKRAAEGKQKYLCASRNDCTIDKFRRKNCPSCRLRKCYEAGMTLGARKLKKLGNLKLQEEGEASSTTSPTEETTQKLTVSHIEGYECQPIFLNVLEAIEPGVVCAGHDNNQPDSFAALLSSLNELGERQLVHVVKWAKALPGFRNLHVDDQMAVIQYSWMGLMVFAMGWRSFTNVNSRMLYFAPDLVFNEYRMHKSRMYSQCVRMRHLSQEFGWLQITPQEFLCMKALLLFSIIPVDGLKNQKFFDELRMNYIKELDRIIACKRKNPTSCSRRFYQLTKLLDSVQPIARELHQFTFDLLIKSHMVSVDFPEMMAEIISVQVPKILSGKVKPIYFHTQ

[10] = molecular target: T3, Aldo-keto reductase family 1 member C2; test: Inhibition of N-terminal His-tagged human AKR1C2 expressed in Escherichia coli BL21 ([…] Plus) competent cells using 9,10-phenanthrenequinone as substrate in presence of NADPH
[11] = molecular target: T1, Aldo-keto reductase family 1 member C3; test: Inhibition of N-terminal His-tagged human AKR1C3 expressed in Escherichia coli BL21([…] Plus) competent cells using 9,10-phenanthrenequinone as substrate in presence of NADPH
[12] = molecular target: T2, Aldo-keto reductase family 1 member C1; test: Inhibition of N-terminal His-tagged human AKR1C1 expressed in Escherichia coli BL21 ([…] Plus) competent cells using 9,10-phenanthrenequinone as substrate in presence of NADPH
[13] = molecular target: T2, Aldo-keto reductase family 1 member C1; test: Inhibition of N-terminal His-tagged human AKR1C1 expressed in Escherichia coli BL21 ([…] Plus) competent cells using 9,10 -Phenanthrenequinone as substrate in presence of NADPH by fluorescence method
[14] = molecular target: Aldo-keto reductase family 1 member B10 (Homo sapiens, UniProt O60218); test: Inhibition of N-terminal His-tagged human AKR1B10 expressed in Escherichia coli BL21 ([…] Plus) competent cells using […] as substrate in presence of NADPH by fluorescence method
Aldo-keto reductase family 1 member B10, sequence (O60218 whole entry): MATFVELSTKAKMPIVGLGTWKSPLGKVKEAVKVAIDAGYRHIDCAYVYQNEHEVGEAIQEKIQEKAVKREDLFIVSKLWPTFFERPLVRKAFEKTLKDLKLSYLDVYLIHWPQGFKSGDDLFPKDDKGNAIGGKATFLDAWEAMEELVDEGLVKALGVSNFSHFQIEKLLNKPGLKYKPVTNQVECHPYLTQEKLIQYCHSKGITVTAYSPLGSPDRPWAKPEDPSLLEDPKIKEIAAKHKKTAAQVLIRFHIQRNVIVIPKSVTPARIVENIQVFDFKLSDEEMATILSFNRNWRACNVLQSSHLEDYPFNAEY

[15] = molecular target: Aldo-keto reductase family 1 member B1 (Homo sapiens, UniProt P15121); test: Inhibition of N-terminal His-tagged human AKR1B1 expressed in Escherichia coli BL21 ([…] Plus) competent cells using D,L-glyceraldehyde as substrate in presence of NADPH by fluorescence method
[16] = molecular target: T1, Aldo-keto reductase family 1 member C3; test: Inhibition of N-terminal His-tagged human AKR1C3 expressed in Escherichia coli BL21 ([…] Plus) competent cells using 9,10 -Phenanthrenequinone as substrate in presence of NADPH by fluorescence method
[17] = molecular target: T6, Aldo-keto reductase family 1 member A1 (Homo sapiens, UniProt P14550); test: Inhibition of N-terminal His-tagged human AKR1A1 expressed in Escherichia coli BL21 ([…] Plus) competent cells using D,L-glyceraldehyde as substrate in presence of NADPH by fluorescence method
T6 sequence (P14550 whole entry): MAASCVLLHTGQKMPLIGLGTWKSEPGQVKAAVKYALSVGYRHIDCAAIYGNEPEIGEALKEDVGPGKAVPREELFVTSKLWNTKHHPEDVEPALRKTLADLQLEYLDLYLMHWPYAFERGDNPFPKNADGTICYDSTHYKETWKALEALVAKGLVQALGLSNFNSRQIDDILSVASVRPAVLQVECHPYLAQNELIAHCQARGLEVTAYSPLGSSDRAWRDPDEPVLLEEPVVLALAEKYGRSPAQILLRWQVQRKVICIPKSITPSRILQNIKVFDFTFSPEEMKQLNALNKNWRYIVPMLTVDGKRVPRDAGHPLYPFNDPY

[18] = molecular target: T3, Aldo-keto reductase family 1 member C2; test: Inhibition of N-terminal His-tagged human AKR1C2 expressed in Escherichia coli BL21 ([…] Plus) competent cells using 9,10 -Phenanthrenequinone as substrate in presence of NADPH by fluorescence method
[19] = molecular target: T4, Aldo-keto reductase family 1 member C4; test: Inhibition of N-terminal His-tagged human AKR1C4 expressed in Escherichia coli BL21 ([…] Plus) competent cells using 9,10 -Phenanthrenequinone as substrate in presence of NADPH by fluorescence method
[20] = molecular target: T1, Aldo-keto reductase family 1 member C3; test: Inhibition of human AKR1C3 expressed in Escherichia coli incubated for 30 mins in presence of NADPH regeneration system by UHPLC analysis; conditions: for Ki: read-out: Ki
[21] = molecular target: T5, Androgen receptor; test: Displacement of [3H]-R1881 from androgen receptor (unknown origin) expressed in human HeLa cells harboring AR3A-PSA-(ARE)4-Luc13 incubated for 2 hrs by scintillation counting; type: cell-based

CCCCC/C=C\C/C=C\CCCCCCCC(=O)O [LINOLEIC ACID]
IC50 [1]: 0.69 µM
IC50 [2]: 0.69 µM

O=C(O)c1cccc(Nc2ccc([N+](=O)[O-])c3ccccc23)c1
IC50 [3]: 41.3 µM
IC50 [4]: 0.086 µM
IC50 [5]: 24.7 µM
IC50 [6]: 30.6 µM

COc1ccc2c(c1)c(CC(=O)O)c(C)n2C(=O)c1ccc(Cl)cc1 [INDOMETHACIN]
IC50 [7]: 50 µM
IC50 [8]: 96 µM

COc1ccc2[nH]c(C(=O)N3CCC(CC(C)(C)O)CC3)cc2c1 [ASP-9521]
IC50 [9]: 300 µM

O=C(O)c1cccc(Nc2ccc([N+](=O)[O-])c3c([N+](=O)[O-])cccc23)c1
IC50 [3]: 15.4 µM
IC50 [4]: 0.053 µM
IC50 [5]: 15.6 µM
IC50 [6]: 5.34 µM

Cc1ccc(S(=O)(=O)NC(=O)NN2CC3CCCC3C2)cc1 (stereo not given) [GLICLAZIDE]
IC50 [10]: > 1000 µM
IC50 [11]: 19.6 µM
IC50 [12]: > 300 µM

CCCCCCCCOC(=O)c1cc(O)c(O)c(O)c1 [OCTYL_GALLATE]
IC50 [13]: 5.48 µM
IC50 [14]: > 100 µM
IC50 [15]: > 100 µM
IC50 [16]: 2.56 µM
IC50 [17]: > 100 µM
IC50 [18]: 9.28 µM
IC50 [19]: 4.04 µM

CC(=O)c1ccc(Nc2cccc(C(=O)O)c2)c2ccccc12
IC50 [3]: 50 µM
IC50 [4]: 0.082 µM
IC50 [5]: 19.5 µM
IC50 [6]: 17.7 µM

CCC1=C(C)CN(C(=O)NCCc2ccc(S(=O)(=O)NC(=O)N[C@H]3CC[C@H](C)CC3)cc2)C1=O [GLIMEPIRIDE]
IC50 [10]: > 50 µM
IC50 [11]: 0.85 µM
IC50 [12]: 6.86 µM

CCCCC/C=C/C/C=C/C/C=C/C/C=C/CCCC(=O)O
IC50 [1]: 0.69 µM
IC50 [2]: 0.84 µM

CC(C)C(CO)Nc1nc(Nc2cccc(Cl)c2)c2ncn(C(C)C)c2n1 (stereo not given)
IC50 [20]: 6.58 µM
Ki [20]: 5.5 µM

CCC(CO)Nc1nc(NCc2ccccc2)c2ncn(C(C)C)c2n1 (stereo not drawn) [(RS)-ROSCOVITINE]
IC50 [20]: 2.15 µM
Ki [20]: 1.4 µM

O=C(/C=C/c1ccc(O)c(O)c1)OCCc1ccccc1 [CAFFEIC ACID PHENETHYL ESTER]
IC50 [13]: 29.2 µM
IC50 [14]: 0.39 µM
IC50 [15]: 3.56 µM
IC50 [16]: 3.71 µM
IC50 [17]: > 50 µM
IC50 [18]: 25.8 µM
IC50 [19]: 8.25 µM

Oc1ccc2c(O)ncc(-c3cc(F)c(F)c(F)c3)c2c1
IC50 [9]: 2.1 µM
IC50 [21]: 80 µM
